The target of one data set is T1, DDX3X ATPase (Homo sapiens, UniProt O00571).
T1 construct: Recombinant his-tagged human full length DDX3X was cloned into the E. coli expression vector pET-30a(+); His tag; made in house; host or cells: Shuffle T7 E. coli
As to the kind of experiment: DDX3X ATPase assay (ADP-Glo). Type of data set: biochemical. As to conditions: recombinant human DDX3X, 50 μM ATP, mean ± SD of three experiments; for Ki: read-out: DDX3X ATPase Ki (apparent dissociation constant for inhibitor binding). As for the experimental part: Recombinant his-tagged human full length DDX3X was cloned into the E. coli expression vector pET-30a(+). Shuffle T7 E. coli cells were transformed with the plasmid and grown at 37 °C up to OD600 = 0.7. DDX3X expression was induced with 0.5 mM IPTG at 15 °C O/N. The cells were harvested by centrifugation, lysed, and the crude extract centrifuged at 100.000xg for 60 min. at 4 °C in a Beckman centrifuge before being loaded onto a FPLC Ni-NTA column (GE Healthcare). Column was equilibrated in Buffer A (50 mM Tris-HCl pH 8.0, 250 mM NaCl, 25 mM Imidazole, and 20% glycerol). After extensive washing in Buffer A, the column was eluted with a linear gradient in Buffer A from 25 mM to 250 mM Imidazole. Proteins in the eluted fractions were visualized on SDS-PAGE and then tested for the presence of DDX3X by Western blot with anti-DDX3X A300-475A(BETHYL) at 1:2000 dilution in 5% milk. Fractions containing the purest DDX3X protein were pooled and stored at −80 °C.
The ATPase assay was carried out by using the commercial kit Promega (Milan, Italy), ADP-Glo^TM Kinase Assay. Reaction was performed in 30 mM TrisHCl pH 8, 9 mM MgCl2, 0.05 mg/mL BSA, 50 μM ATP, and 4 μM of recombinant DDX3X. Reaction was performed following the ADP-Glo^TM Kinase Assay Protocol and luminescence was measured with MicroBeta TriLux (Perkin Elmer, Milan, Italy).
On the technique in general: In ADP-Glo the light output rises with the ADP produced.

In another data set the test system is HIV-1 (NL4-3). As to the kind of experiment: Antiviral BiCycle assay, HIV-1 NL4-3 in H9 cells with TZM-bl readout. Format: cell-based. As to conditions: 72 h, then TZM-bl reporter cells 48 h; for IC50: Human immunodeficiency virus 1, NL43, H9 cells. How it is done:
The antiviral activity was evaluated by measuring the half maximal inhibitory concentration (IC50) values against the HIV-1 wild-type reference strain NL4-3 in a TZM-bl cell line based phenotypic assay, named BiCycle Assay. The method includes a first round of infection of human T cell lymphoma derived clone H9 at multiplicity of infection of 0.03 in the presence of serial dilution of compounds in a 96-well plate. After 72 h, 50 microliters of supernatants from each well were used to infect the TZM-bl cell line, which allow the quantitative analysis of HIV infection by measuring the expression of the luciferase gene integrated in the genome of the cells under the control of HIV-1 LTR promoter.
After 48 h, dose-response curves were generated by measuring reporter gene expression in each well by using the Bright-Glo Luciferase Assay (Promega) through the GloMax Discovery reader (Promega). Relative luminescence units measured in each well were elaborated with the GraphPad Software v.6.0 to calculate IC50 values. All the viruses and cell lines were obtained through the NIH AIDS Reagent Program (www.aidsreagent.org).

Data set [1] in a line: Cytotoxicity assay in H9 cells (CellTiter-Glo 2.0). Type of data set: cell-based, human. As to conditions: human; non-infected H9 cells, 72 h. As for the experimental part: (§1) Cytotoxicity in H9 cells was determined by using the CellTiter-Glo 2.0 assay (Promega). H9 cells were seeded at 40,000 cells/well in duplicate in the presence of serial two-fold dilutions of compounds (range 200–1.56 μM) and incubated for 72 h. Cell viability was calculated by measuring cellular ATP as a marker of metabolically active cells through a luciferase based chemical reaction and expressed as the concentration that reduce cell viability by 50%.
(ATP-based viability assays read luminescence as a measure of living cells.)

Data set [2] in a line: Parallel Artificial Membrane Permeability Assay (PAMPA). Type of data set: in vitro ADME. As to conditions: pH 7.4, 5 h; for Papp at 5 h, 0.5 mM: room temperature, read-out: AppP (apparent permeability). As for the experimental part: Finally, we evaluated passive membrane permeability (AppP) while using Parallel Artificial Membrane Permeability Assay (PAMPA). The quantity of compound able to diffuse through a semipermeable artificial membrane was calculated by LC-MS-MS.
Donor solution (0.5 mM) was prepared by diluting 1 mM dimethylsulfoxide (DMSO) compound stock solution while using phosphate buffer (pH 7.4, 0.025 M). Filters were coated with 5 μL of a 1% (w/v) dodecane solution of phosphatidylcholine for intestinal permeability. Donor solution (150 μL) was added to each well of the filter plate. To each well of the acceptor plate was added 300 μL of solution (50% DMSO in phosphate buffer). All of the compounds were tested in three different plates on different days. The sandwich was incubated for 5 h at room temperature under gentle shaking. After the incubation time, the plates were separated, and samples were taken from both receiver and donor sides and analyzed while using LC with UV detection at 280 nm. LC analysis was performed with a PerkinElmer (series 200) instrument that was equipped with an UV detector (PerkinElmer 785A, UV/vis Detector). Chromatographic separation was conducted using a Polaris C18 column (150–4.6 mm, 5 μm particle size) at a flow rate of 0.8 mL min^−1 with a mobile phase composed of 60% ACN/40% H2O-formic acid 0.1% for all compounds. Permeability (Papp) was calculated according to the following equation with some modification to obtain permeability values in cm/s, (1) Papp=VDVA/(VD+VA)At−ln(1−r) where VA is the volume in the acceptor well, VD is the volume in the donor well (cm^3), A is the “effective area” of the membrane (cm^2), t is the incubation time (s), and r the ratio between drug concentration in the acceptor and equilibrium concentration of the drug in the total volume(VD + VA).
Drug concentration is estimated by using the peak area integration. Membrane retentions (%) were calculated according to the following equation:(2) %MR=[r−(D+A)]100/Eq where r is the ratio between drug concentration in the acceptor and equilibrium concentration, D, A, and Eq represented drug concentration in the donor, acceptor, and equilibrium solution, respectively.
(PAMPA measures passive passage across an artificial lipid membrane.)

The nature of a further data set: Water solubility assay. Type of data set: physicochemical. As to conditions: 27 °C, thermodynamic from solid, 1 mg in 1 mL water. How it is done: […] After 24 h of stirring at 27 °C, the mixture was filtered and the quantity of solubilized compound determined by LC-MS-MS. […] By contrast, esters 30 and 31 due to their lipophilicity have values outside the recommended range […].
The appropriate (1 mg) was added to 1 mL of water. The sample was shaken in a shaker bath at room temperature for 24–36 h. The suspensions were filtered through a 0.45 μm nylon filter (Acrodisc, Sigma Aldrich, Milan, Italy) and the solubilized compound determined by LC-MS-MS assay. The determination was performed in triplicate. For the quantification, an LC-MS system consisting of a Varian apparatus (Varian Inc., Palo Alto, CA, USA), including a vacuum solvent degassing unit, two pumps (212-LC), a Triple Quadrupole MSD (Mod. 320-LC) mass spectrometer with ES interface, and Varian MS Workstation System Control Vers. 6.9 software, was used. Chromatographic separation was obtained while using a 3 μm particle size Pursuit C18 column (50 × 2.0 mm) (Varian). Column was equilibrated in Buffer B (aqueous solution of 0.1% formic acid) and eluted with a linear increase from 0% to 70% gradient of Buffer A (ACN) for 10 min. and subsequent increase up to 98% for additional 5 min. The instrument operated in positive mode and the following parameters were used: injection volume 5 μL, flow rate 0.3 mL/min, detector 1850 V, drying gas pressure 25.0 psi, desolvation temperature 300.0 °C, nebulizing gas 45.0 psi, needle 5000 V, and shield 600 V. Nebulizer gas and drying gas was Nitrogen. Argon was the collision gas at a pressure of 1.8 mTorr in the collision cell. Single compound quantification was performed in comparison with standard calibration curves in methanol.

For another data set, the system named is H9 cells. As to the kind of experiment: Cytotoxicity assay in H9 cells (CellTiter-Glo 2.0). Format: cell-based, human. Particulars: CC50 in H9 cells versus anti-HIV-1 IC50. As for the experimental part:
as §1

The mark [3] stands for this setting: read-out: AqS (aqueous solubility).
[4] abbreviates: read-out: AqS as Log of molar concentration (LogS) (converted).

Read-outs that look alike come from different tables or passages of the source.

T1 sequence (O00571 whole entry): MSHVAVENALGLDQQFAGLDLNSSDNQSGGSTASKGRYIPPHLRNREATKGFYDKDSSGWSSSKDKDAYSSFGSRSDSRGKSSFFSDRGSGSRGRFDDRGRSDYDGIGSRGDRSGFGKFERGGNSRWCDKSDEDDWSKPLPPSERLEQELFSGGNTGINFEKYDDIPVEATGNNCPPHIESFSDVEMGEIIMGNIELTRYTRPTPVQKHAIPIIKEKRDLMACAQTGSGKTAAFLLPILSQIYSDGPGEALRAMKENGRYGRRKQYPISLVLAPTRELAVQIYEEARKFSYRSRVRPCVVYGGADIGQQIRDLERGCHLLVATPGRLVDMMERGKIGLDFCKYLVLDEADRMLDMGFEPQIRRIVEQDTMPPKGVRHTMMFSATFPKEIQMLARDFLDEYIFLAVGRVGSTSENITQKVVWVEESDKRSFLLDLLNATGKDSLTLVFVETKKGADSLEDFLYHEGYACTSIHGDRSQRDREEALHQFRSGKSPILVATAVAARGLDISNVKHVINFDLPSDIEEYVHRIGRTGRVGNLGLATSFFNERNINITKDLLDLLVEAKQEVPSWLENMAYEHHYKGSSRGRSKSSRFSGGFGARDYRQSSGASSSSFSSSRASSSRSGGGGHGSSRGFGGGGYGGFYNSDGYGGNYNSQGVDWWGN

Take `COc1ccc(-c2nnc(N3C(=O)c4ccccc4C3=O)s2)cc1` [Compound 17, 2-(5-(4-Methoxyphenyl)-1,3,4-thiadiazol-2-yl)isoindoline-1,3-dione]: on DDX3X ATPase, the “DDX3X ATPase Ki (apparent dissociation constant for inhibitor binding)” value is “completely inactive” and the Ki is > 50 µM.
Consider `COc1ccc(-c2nnc(NC(=O)c3ccccc3C(=O)O)s2)cc1` [Compound 23, 2-((5-(4-Methoxyphenyl)-1,3,4-thiadiazol-2-yl)carbamoyl)benzoic acid], for which, on DDX3X ATPase, the Ki is 1.3 ± 0.2 µM. Besides, the “HIV-1 (NL4-3) IC50” value in the data set with HIV-1 (NL4-3) (H9 cells) is “inactive”. For the same molecule, the IC50 (in general, the concentration needed to halve the response being measured) in the data set with HIV-1 (NL4-3) is > 50 µM. In data set [1], the CC50 – broadly, the concentration at which the toxic effect on the cells reaches its halfway point – at 72 h is > 200 µM. Also, the “Percentage in parentheses beside AppP (membrane retention)” value (from here on “Percentage in parentheses beside AppP”) in data set [2] is 0%. In addition, in data set [2], the Papp at 5 h, 0.5 mM was < 0.1 ×10⁻⁶ cm/s. Also, the solubility at 24 h in the data set “Water solubility assay” (setting [3]) was 3.3 µg/mL; in “Water solubility assay” (setting [4]) it was 9.33 µM.
Turning to `O=C(O)c1ccccc1C(=O)Nc1nnc(-c2ccccc2Br)s1` [Compound 25, 2-((5-(2-Bromophenyl)-1,3,4-thiadiazol-2-yl)carbamoyl)benzoic acid], at DDX3X ATPase, the “DDX3X ATPase Ki (apparent dissociation constant for inhibitor binding)” value was “abolished”.
In the case of `CN(C)c1ccc(-c2nnc(NC(=O)c3ccccc3C(=O)O)s2)cc1` [Compound 27, 2-((5-(4-(Dimethylamino)phenyl)-1,3,4-thiadiazol-2-yl)carbamoyl)benzoic acid], the Ki on DDX3X ATPase was found to be 11.9 ± 1.9 µM. Further, the IC50 with HIV-1 (NL4-3) was > 50 µM. This molecule also displayed a CC50 at 72 h in data set [1] of 130 µM.
Regarding `O=C(O)c1ccccc1C(=O)Nc1nnc(-c2ccccc2[N+](=O)[O-])s1` [Compound 28, 2-((5-(2-Nitrophenyl)-1,3,4-thiadiazol-2-yl)carbamoyl)benzoic acid], the Ki at DDX3X ATPase stood at 18.3 ± 1.8 µM. The molecule also registered an IC50 in the data set on HIV-1 (NL4-3) of 42.3 ± 5.2 µM. It took 74 µM to reach half-maximal cytotoxicity in data set [1] (CC50 at 72 h). Moreover, the “SI (selectivity index)” value in the data set on H9 cells was 1.7.
Regarding `COC(=O)c1ccccc1C(=O)Nc1nnc(-c2ccc(OC)cc2)s1` [Compound 29, Methyl 2-((5-(4-methoxyphenyl)-1,3,4-thiadiazol-2-yl)carbamoyl)benzoate], on DDX3X ATPase, the Ki was found to be 15.6 µM. The molecule further returned a CC50 at 72 h in data set [1] of 45 µM. Further, in data set [2], the “Percentage in parentheses beside AppP” value worked out at 36%. Further, the Papp at 5 h, 0.5 mM in data set [2] was found to be 0.7 ×10⁻⁶ cm/s. The solubility at 24 h was 0.5 µg/mL in “Water solubility assay” (setting [3]) and 1.35 µM in the data set “Water solubility assay” (setting [4]).
On to `CCOC(=O)c1ccccc1C(=O)Nc1nnc(-c2ccc(OC)cc2)s1` [Compound 30, Ethyl 2-((5-(4-methoxyphenyl)-1,3,4-thiadiazol-2-yl)carbamoyl)benzoate], for which the Ki at DDX3X ATPase was 20.1 ± 2.1 µM. For the same molecule, the IC50 with HIV-1 (NL4-3) is > 50 µM. In addition, the CC50 at 72 h in data set [1] is > 200 µM. Besides, in data set [2], the “Percentage in parentheses beside AppP” value came out at 4.6% and the Papp at 5 h, 0.5 mM worked out at 2.1 ×10⁻⁶ cm/s. In addition, in the data set “Water solubility assay” (setting [3]), the solubility at 24 h is < 0.1 µg/mL. Also, the solubility at 24 h in “Water solubility assay” (setting [4]) was > 1 µM.
Turning to `CCCCOC(=O)c1ccccc1C(=O)Nc1nnc(-c2ccc(OC)cc2)s1` [Compound 31, Butyl 2-((5-(4-methoxyphenyl)-1,3,4-thiadiazol-2-yl)carbamoyl)benzoate], the Ki at DDX3X ATPase stood at 23.5 ± 2.5 µM. Moreover, half-maximal inhibition in the data set on HIV-1 (NL4-3) (IC50) was put at 16 ± 10 µM. The CC50 at 72 h in data set [1] was determined as 100 µM. In data set [2], the “Percentage in parentheses beside AppP” value worked out at 25.9% and the Papp at 5 h, 0.5 mM was determined as 6.1 ×10⁻⁶ cm/s. For the same molecule, the solubility at 24 h in “Water solubility assay” (setting [3]) was < 0.1 µg/mL. Further, the solubility at 24 h in “Water solubility assay” (setting [4]) is > 1 µM.
Regarding `COC(=O)c1ccccc1C(=O)Nc1nnc(-c2ccccc2[N+](=O)[O-])s1` [Compound 32, Methyl 2-((5-(2-nitrophenyl)-1,3,4-thiadiazol-2-yl)carbamoyl)benzoate], on DDX3X ATPase, the “DDX3X ATPase Ki (apparent dissociation constant for inhibitor binding)” value is “annulled enzymatic inhibition”.
As to `O=C(Nc1nnc(-c2ccccc2[N+](=O)[O-])s1)c1ccccc1S(=O)(=O)O` [Compound 34, 2-((5-(2-Nitrophenyl)-1,3,4-thiadiazol-2-yl)carbamoyl)benzenesulfonic acid], the Ki on DDX3X ATPase amounted to 35.4 ± 3.5 µM. In addition, the IC50 in the data set on HIV-1 (NL4-3) is > 50 µM. The molecule further yielded a CC50 at 72 h in data set [1] of 110 µM.
For the molecule `Nc1ccccc1-c1nnc(NC(=O)c2ccccc2S(=O)(=O)O)s1` [Compound 35, 2-((5-(2-Aminophenyl)-1,3,4-thiadiazol-2-yl)carbamoyl)benzenesulfonic acid], the Ki at DDX3X ATPase is 20.1 ± 2.1 µM. In the data set with HIV-1 (NL4-3), the IC50 is > 50 µM. Moreover, the CC50 at 72 h in data set [1] is 130 µM.
In the case of `Nc1ccccc1-c1nnc(NC(=O)c2ccccc2C(=O)O)s1` [Compound 36, 2-((5-(2-Aminophenyl)-1,3,4-thiadiazol-2-yl)carbamoyl)benzoic acid], at DDX3X ATPase, the “DDX3X ATPase Ki (apparent dissociation constant for inhibitor binding)” value is “total loss of inhibitory capability”.

These data come from paper PMC6864647, “Synthesis and Antiviral Activity of Novel 1,3,4-Thiadiazole Inhibitors of DDX3X” (Molecules, 2019).
